Laboratory results from patent US8318297B2, “Titanate nanowire, titanate nanowire scaffold, and processes of making same” (Board of Trustees of the University of Arkansas, priority 2007, dated 2012).

Assay: Controlled release of crystal violet from nanowire scaffolds on Ti foil
Type: physicochemical
Conditions: for Release (%): crystal violet released from nanowire scaffolds on Ti, 10 mL fresh water
Experimental: A piece of dried titanium foil (2.2 cm^2) that was coated with nanofiber scaffolds was soaked in 100 mL of 0.001 mol/L crystal violet (C25H30ClN3, as a simulated drug) solution for 12 hours at room temperature. Then, the foil was collected, rinsed with deionized water, dried at room temperature overnight, and placed in 10 mL of fresh water for releasing the crystal violet molecules. The released crystal violet was measured on the Beckman DU-530 UV-Visible Spectrometer. A piece of dried titanium foil (2.2 cm^2) pre-coated with the nanowire scaffolds was soaked in 100 mL of 0.001 mol/L crystal violet (C25H30ClN3, as a simulated drug) solution for 12 hrs at room temperature. Then, the foil was collected, rinsed with deionized water, dried at room temperature overnight, and was then placed in 10 mL of fresh water for releasing the crystal violet molecules. The released crystal violet was measured on the Beckman DU-530 UV-Visible Spectrometer.

Release (%) (time 0 hours): 22.6%
Release (%) (time 2 hours): 82.0%
Release (%) (time 2 hours, listed as model drug): ~80%
Release (%) (time 4 hours): 95.0%
Release (%) (time 6 hours): 99.2%
Release (%) (time 12 hours): 100%
time at which the model drug's concentration reached a maximum (release from nanowire scaffold on Ti foil): 6 h
SMILES: CN(C)c1ccc(C(=C2C=CC(=[N+](C)C)C=C2)c2ccc(N(C)C)cc2)cc1 [Crystal violet, crystal violet]
